ChEMBL document CHEMBL1132006, “Synthesis and biological evaluation of coumarincarboxylic acids as inhibitors of gyrase B. L-rhamnose as an effective substitute for L-noviose” (1999)
In brackets after ≈: the same amount, converted by molar mass.

Columns and labels:
Enterococcus faecium = experiment: In vitro antibacterial activity against Enterococcus faecium 02D31P2 VanTeiEry-R strain; type: functional
[1] = tested on: Staphylococcus epidermidis; experiment: In vitro antibacterial activity against Staphylococcus epidermidis 012GO39 OxaTei-R strain; type: functional
Streptococcus pyogenes = experiment: In vitro antibacterial activity against Streptococcus pyogenes O2A1UC1 strain
Staphylococcus aureus [2] = experiment: In vitro antibacterial activity against Staphylococcus aureus 011GO76 OfloOxaEry-R strain; type: functional
Staphylococcus aureus [3] = experiment: In vitro antibacterial activity against Staphylococcus aureus 011HT1 Nov-R strain; type: functional
Staphylococcus aureus [4] = experiment: In vitro antibacterial activity against Staphylococcus aureus 011HT3 strain; type: functional

`CO[C@@H]1[C@@H](OC(=O)c2ccc(C)[nH]2)[C@@H](O)[C@H](Oc2ccc3c(CC(=O)O)cc(=O)oc3c2C)O[C@H]1C` gave an MIC (Enterococcus faecium) greater than 40 µg/mL, an MIC [1] of 10 µg/mL (≈ 19.9 µM) and an MIC (Streptococcus pyogenes) greater than 40 µg/mL. It also gave an MIC (Staphylococcus aureus [2]) of 40 µg/mL (≈ 79.8 µM), an MIC (Staphylococcus aureus [3]) greater than 40 µg/mL and an MIC (Staphylococcus aureus [4]) of 10 µg/mL (≈ 19.9 µM).
`CCCCCCCc1cc(O[C@@H]2O[C@@H](C)[C@H](OC)[C@@H](OC(=O)c3ccc(C)[nH]3)[C@H]2O)c(C)c2oc(=O)c(C(=O)O)cc12` was tested, and the MIC (Enterococcus faecium) was 0.6 µg/mL (≈ 1.02 µM), the MIC [1] was 0.3 µg/mL (≈ 0.512 µM) and the MIC (Streptococcus pyogenes) was 0.3 µg/mL (≈ 0.512 µM). For the same compound, the MIC (Staphylococcus aureus [2]) was 0.3 µg/mL (≈ 0.512 µM), the MIC (Staphylococcus aureus [3]) was 5 µg/mL (≈ 8.54 µM) and the MIC (Staphylococcus aureus [4]) was 0.08 µg/mL (≈ 0.137 µM).
Compound `CCCCCCCc1cc(O[C@@H]2O[C@@H](C)[C@H](OC)[C@@H](OC(=O)c3ccc(C)[nH]3)[C@H]2O)c(C)c2oc(=O)c(C(=O)NS(=O)(=O)c3ccccc3)cc12` has an MIC (Enterococcus faecium) of 2.5 µg/mL (≈ 3.45 µM), an MIC [1] of 0.6 µg/mL (≈ 0.828 µM) and an MIC (Streptococcus pyogenes) of 0.3 µg/mL (≈ 0.414 µM). For the same compound, the MIC (Staphylococcus aureus [2]) was 0.6 µg/mL (≈ 0.828 µM), the MIC (Staphylococcus aureus [3]) was 2.5 µg/mL (≈ 3.45 µM) and the MIC (Staphylococcus aureus [4]) was 0.15 µg/mL (≈ 0.207 µM).
Work on `CO[C@@H]1[C@@H](OC(=O)c2ccc(C)[nH]2)[C@@H](O)[C@H](Oc2ccc3c(CC(=O)O)cc(=O)oc3c2C)OC1(C)C` yielded an MIC (Enterococcus faecium) greater than 40 µg/mL, an MIC [1] of 2.5 µg/mL (≈ 4.85 µM) and an MIC (Streptococcus pyogenes) of 10 µg/mL (≈ 19.4 µM). For the same compound, the MIC (Staphylococcus aureus [2]) was 5 µg/mL (≈ 9.7 µM), the MIC (Staphylococcus aureus [3]) was greater than 40 µg/mL and the MIC (Staphylococcus aureus [4]) was 2.5 µg/mL (≈ 4.85 µM).
Work on `CCCCCc1cc(O[C@@H]2OC(C)(C)[C@H](OC)[C@@H](OC(=O)c3ccc(C)[nH]3)[C@H]2O)c(C)c2oc(=O)c(C(=O)O)cc12` yielded an MIC (Enterococcus faecium) of 0.3 µg/mL (≈ 0.525 µM), an MIC [1] of less than 0.04 µg/mL and an MIC (Streptococcus pyogenes) of less than 0.04 µg/mL. For the same compound, the MIC (Staphylococcus aureus [2]) was 0.15 µg/mL (≈ 0.262 µM), the MIC (Staphylococcus aureus [3]) was 2.5 µg/mL (≈ 4.37 µM) and the MIC (Staphylococcus aureus [4]) was less than 0.04 µg/mL.
Work on `CCCCCCCCCCCCc1cc(O[C@@H]2O[C@@H](C)[C@H](OC)[C@@H](OC(=O)c3ccc(C)[nH]3)[C@H]2O)c(C)c2oc(=O)c(C(=O)O)cc12` yielded an MIC (Enterococcus faecium) greater than 40 µg/mL, an MIC [1] of 40 µg/mL (≈ 61 µM) and an MIC (Streptococcus pyogenes) of 0.3 µg/mL (≈ 0.457 µM). For the same compound, the MIC (Staphylococcus aureus [2]) was 5 µg/mL (≈ 7.62 µM), the MIC (Staphylococcus aureus [3]) was greater than 40 µg/mL and the MIC (Staphylococcus aureus [4]) was 0.08 µg/mL (≈ 0.122 µM).
`CCCCCc1cc(O[C@@H]2O[C@@H](C)[C@H](OC)[C@@H](OC(=O)c3ccc(C)[nH]3)[C@H]2O)c(C)c2oc(=O)c(C(=O)O)cc12` was tested, and the MIC (Enterococcus faecium) was 2.5 µg/mL (≈ 4.48 µM), the MIC [1] was 0.6 µg/mL (≈ 1.08 µM) and the MIC (Streptococcus pyogenes) was 1.2 µg/mL (≈ 2.15 µM). The MIC (Staphylococcus aureus [2]) was 2.5 µg/mL (≈ 4.48 µM), the MIC (Staphylococcus aureus [3]) was 20 µg/mL (≈ 35.9 µM) and the MIC (Staphylococcus aureus [4]) was 0.6 µg/mL (≈ 1.08 µM).
Compound `CO[C@@H]1[C@@H](OC(=O)c2ccc(C)[nH]2)[C@@H](O)[C@H](Oc2ccc3c(C)c(CCC(=O)O)c(=O)oc3c2C)O[C@H]1C` has an MIC (Enterococcus faecium) greater than 40 µg/mL, an MIC [1] greater than 40 µg/mL and an MIC (Streptococcus pyogenes) of 40 µg/mL (≈ 75.5 µM). The MIC (Staphylococcus aureus [2]) was greater than 40 µg/mL, the MIC (Staphylococcus aureus [3]) was greater than 40 µg/mL and the MIC (Staphylococcus aureus [4]) was greater than 40 µg/mL.
In the case of `CO[C@@H]1[C@@H](OC(=O)c2ccc(C)[nH]2)[C@@H](O)[C@H](Oc2ccc3c(C)c(CC(=O)O)c(=O)oc3c2C)O[C@H]1C`, the MIC (Enterococcus faecium) is reported as greater than 40 µg/mL, the MIC [1] is reported as greater than 40 µg/mL and the MIC (Streptococcus pyogenes) is reported as 40 µg/mL (≈ 77.6 µM). For the same compound, the MIC (Staphylococcus aureus [2]) was greater than 40 µg/mL, the MIC (Staphylococcus aureus [3]) was greater than 40 µg/mL and the MIC (Staphylococcus aureus [4]) was greater than 40 µg/mL.
In the case of `COC(=O)Cc1cc(=O)oc2cc(O[C@@H]3O[C@@H](C)[C@H](OC)[C@@H](OC(=O)c4ccc(C)[nH]4)[C@H]3O)ccc12`, the MIC (Enterococcus faecium) is reported as greater than 40 µg/mL, the MIC [1] is reported as greater than 40 µg/mL and the MIC (Streptococcus pyogenes) is reported as greater than 40 µg/mL. It also gave an MIC (Staphylococcus aureus [2]) greater than 40 µg/mL, an MIC (Staphylococcus aureus [3]) greater than 40 µg/mL and an MIC (Staphylococcus aureus [4]) greater than 40 µg/mL.
`CO[C@@H]1[C@@H](OC(=O)c2ccc(C)[nH]2)[C@@H](O)[C@H](Oc2ccc3cc(C(=O)O)c(=O)oc3c2C)O[C@H]1C` showed an MIC (Enterococcus faecium) greater than 40 µg/mL, an MIC [1] greater than 40 µg/mL and an MIC (Streptococcus pyogenes) of 40 µg/mL (≈ 82.1 µM). For the same compound, the MIC (Staphylococcus aureus [2]) was greater than 40 µg/mL, the MIC (Staphylococcus aureus [3]) was greater than 40 µg/mL and the MIC (Staphylococcus aureus [4]) was greater than 40 µg/mL.
`CO[C@@H]1[C@@H](OC(=O)c2ccc(C)[nH]2)[C@@H](O)[C@H](Oc2cc(Cc3ccccc3)c3cc(C(=O)O)c(=O)oc3c2C)O[C@H]1C` showed an MIC (Enterococcus faecium) of 20 µg/mL (≈ 34.6 µM), an MIC [1] of 2.5 µg/mL (≈ 4.33 µM) and an MIC (Streptococcus pyogenes) of 5 µg/mL (≈ 8.66 µM). The MIC (Staphylococcus aureus [2]) was 5 µg/mL (≈ 8.66 µM), the MIC (Staphylococcus aureus [3]) was greater than 40 µg/mL and the MIC (Staphylococcus aureus [4]) was 2.5 µg/mL (≈ 4.33 µM).
In the case of `CO[C@@H]1[C@@H](OC(=O)c2ccc(C)[nH]2)[C@@H](O)[C@H](Oc2ccc3c(CC(=O)O)cc(=O)oc3c2)O[C@H]1C`, the MIC (Enterococcus faecium) is reported as greater than 40 µg/mL, the MIC [1] is reported as greater than 40 µg/mL and the MIC (Streptococcus pyogenes) is reported as greater than 40 µg/mL. It also gave an MIC (Staphylococcus aureus [2]) greater than 40 µg/mL, an MIC (Staphylococcus aureus [3]) greater than 40 µg/mL and an MIC (Staphylococcus aureus [4]) greater than 40 µg/mL.
In the case of `CO[C@@H]1[C@@H](OC(=O)c2ccc(C)[nH]2)[C@@H](O)[C@H](Oc2ccc3c(C(=O)O)cc(=O)oc3c2C)O[C@H]1C`, the MIC (Enterococcus faecium) is reported as greater than 40 µg/mL, the MIC [1] is reported as greater than 40 µg/mL and the MIC (Streptococcus pyogenes) is reported as greater than 40 µg/mL. It also gave an MIC (Staphylococcus aureus [2]) greater than 40 µg/mL, an MIC (Staphylococcus aureus [3]) greater than 40 µg/mL and an MIC (Staphylococcus aureus [4]) greater than 40 µg/mL.
`CCCc1cc(O[C@@H]2O[C@@H](C)[C@H](OC)[C@@H](OC(=O)c3ccc(C)[nH]3)[C@H]2O)c(C)c2oc(=O)c(C(=O)O)cc12` was tested, and the MIC (Enterococcus faecium) was greater than 40 µg/mL, the MIC [1] was 10 µg/mL (≈ 18.9 µM) and the MIC (Streptococcus pyogenes) was greater than 40 µg/mL. For the same compound, the MIC (Staphylococcus aureus [2]) was 40 µg/mL (≈ 75.5 µM), the MIC (Staphylococcus aureus [3]) was greater than 40 µg/mL and the MIC (Staphylococcus aureus [4]) was 10 µg/mL (≈ 18.9 µM).
`CO[C@@H]1[C@@H](OC(=O)c2ccc(C)[nH]2)[C@@H](O)[C@H](Oc2ccc3c(O)c(NC(=O)c4ccc(O)c(CC=C(C)C)c4)c(=O)oc3c2Cl)OC1(C)C` [CHLOROBIOCIN] showed an MIC [1] of less than 0.04 µg/mL, an MIC (Streptococcus pyogenes) of less than 0.04 µg/mL and an MIC (Staphylococcus aureus [2]) of less than 0.04 µg/mL. For the same compound, the MIC (Staphylococcus aureus [3]) was 0.15 µg/mL (≈ 0.215 µM) and the MIC (Staphylococcus aureus [4]) was less than 0.04 µg/mL.
For `CO[C@@H]1[C@@H](OC(N)=O)[C@@H](O)[C@H](Oc2ccc3c(O)c(NC(=O)c4ccc(O)c(CC=C(C)C)c4)c(=O)oc3c2C)OC1(C)C` [NOVOBIOCIN], the MIC (Enterococcus faecium) was 0.3 µg/mL (≈ 0.49 µM), the MIC [1] was 0.08 µg/mL (≈ 0.131 µM) and the MIC (Streptococcus pyogenes) was 0.15 µg/mL (≈ 0.245 µM). It also gave an MIC (Staphylococcus aureus [2]) of less than 0.04 µg/mL, an MIC (Staphylococcus aureus [3]) of 20 µg/mL (≈ 32.6 µM) and an MIC (Staphylococcus aureus [4]) of less than 0.04 µg/mL.
